# Reference: patent US9303069B2, “Peptides for treating cancer” (University of Mississippi Medical Center, priority 2014, dated 2016)
# Columns and labels:
# MDA-MB-468 cells = test: cells; conditions: Homo sapiens, MDA-MB-468, read-out: IC50 of paclitaxel (viability)
# MDA-MB-468 tumors = test: In vivo efficacy on established MDA-MB-468 tumors; parameters: species or system mice; conditions: 12 days; paclitaxel 10 mg/kg i.p., every third day, four injections
# Procedure: Nude 6-8 weeks female mice were injected with 2×10^6 of MDA-MB-468 cells in the 2nd left and 4th right mammary fat pads. When all tumors reached ˜0.1 cm^3 in volume, mice were divided into four groups, one received vehicles (i.e. DMSO injected intraperitoneally [i.p.] and scrambled peptide injected directly into tumors [i.t.]), another received paclitaxel (10 mg/kg, i.p.), the third received IRIS peptide at (10 mg/kg, i.t.), and the last received paclitaxel and IRIS peptide at half the concentrations, injected as above. Drugs were delivered every third day for total of four injections.
# In Vivo efficacy of BRCA1-IRIS-inhibitory peptide. Six to eight week old female athymic SCID mice were injected in the second right and the fourth left mammary gland with 2.5×10^6 of MDAMB468 cells. Tumor growth was followed daily until tumors reached 100 mm^3. At this time mice were randomly grouped into four different groups that were injected: a) with DMSO (i.p.) and scrambled peptide (10 mg/kg) intra-tumoral (i.t.), b) injected with IRIS peptide (10 mg/kg, i.t.), c) injected with paclitaxel (10 mg/kg, i.p.), d) injected with IRIS peptide (5 mg/kg, i.t.), and paclitaxel (5 mg/kg, i.p.). […] Change in tumor volume was measured to monitor the efficacy of the treatments using caliper and is represented as percentage of volume at day 0 of treatment. […]
# HME/IRIS cells = test: cells; conditions: Homo sapiens, read-out: IC50 of paclitaxel (viability)
# Procedure: (§2) All cell lines were exposed to increasing concentrations of paclitaxel and BRCA1-IRIS expression, and cells' viability was then measured.
# (§3) Cell viability measurement. Cell viability under different experimental conditions was determined using the MTS assay. Briefly, cells (2.5×10^4 cells per well) were seeded in 96-well plates and incubated overnight at 37° C. in 10% humidified CO2 atmosphere. The next day they were incubated with varying concentration of peptide, or inhibitors for 24 hours at 37° C. Cell viability was determined using cell Titer 96® Aqueous (Promega, Madison, Wis., USA) following manufacturer's instructions. Cell viability (%) was expressed as a ratio of treated cells to control cells×100. […] Each experiment was done in triplicate, repeated three separate times.
# BRCA1-IRIS and survivin = test: IHC of MDA-MB-468 tumors for BRCA1-IRIS and survivin; format: in vivo, mice; conditions: MDA-MB-468 tumors after treatment
# Excerpt: To study that on the molecular level, sections from these tumors were stained with H&E or for BRCA1-IRIS or survivin using immunohistochemistry. […] Accordingly, it is proposed that inactivating BRCA1-IRIS in TNBC patients might sensitize to lower paclitaxel concentrations to avoid the adverse side effects and also to prevent the recurrence of these tumors at a later point.
# Immunohistochemistry (IHC). Breast tissue microarrays comprised of normal, DCIS, invasive and metastatic were purchased from US Biomax, Inc. Paraffin embedded tissue sections were de-waxed in xylene and rehydrated in alcohol. Antigen-retrieval: for FOXO3a and survivin was by heating the slides in citrate buffer (10 μM, pH 6.0) using microwave (Power level 4) for 10 minutes, for BRCA1-IRIS by incubating slides in pepsin (10 μM) for 20 min at 37° C. Endogenous peroxidase activity was suppressed by treating the slides with 3% H2O2 for 10 min. Slides were then incubated for 1 hour at room temperature with antibodies to human FOXO3a or survivin (Cell Signaling Technology, USA 1:400), or overnight at 4° C. with monoclonal anti-human BRCA1-IRIS (1:75). Vectastain Elite ABC Kit was used to develop the staining using horseradish peroxidase labeled secondary antibodies (1 hour at room temperature).
# [1] = tested on: HME, HME/IRIS, MDA-MB-231, MDA-MB-468 and BT549 cells; test: Survival of breast cell lines with IRIS peptide, paclitaxel or both; format: cell-based, human; conditions: all cell lines, 24 hours
# Procedure: (§1) To investigate whether inactivating BRCA1-IRIS could sensitize TNBC to paclitaxel-induced cell death, HME cells were exposed to 0.5 μM, while HME/IRIS, MDA-MB-231, MDA-MB-468 and BT549 cells were exposed to 5 μM of IRIS peptide alone or with 5, 10 or 20 μM of paclitaxel for 24 hours. […] Again, IRIS peptide alone at these concentrations led to 50% reduction in survival of all cell lines. […] Indeed, in the presence of IRIS peptide >60%, >70% and >90% reduction in the survival of all cell lines in the presence of 5, 10 and 20 μM of paclitaxel, respectively (FIG. 84).
# Cell viability measurement. Cell viability under different experimental conditions was determined using the MTS assay. Briefly, cells (2.5×10^4 cells per well) were seeded in 96-well plates and incubated overnight at 37° C. in 10% humidified CO2 atmosphere. The next day they were incubated with varying concentration of peptide, or inhibitors for 24 hours at 37° C. Cell viability was determined using cell Titer 96® Aqueous (Promega, Madison, Wis., USA) following manufacturer's instructions. Cell viability (%) was expressed as a ratio of treated cells to control cells×100. Growth inhibition was also determined by manually counting cells in five different microscopic fields. Change in cell numbers (fold) was expressed as a ratio of the means of these recording of treated cells compared to control cells×100. Each experiment was done in triplicate, repeated three separate times.
# HME cells = test: cells; conditions: Homo sapiens, read-out: IC50 of paclitaxel (viability)
# Procedure: as §2, §3
# BRCA1-IRIS = BRCA1-IRIS expression in breast cells (Western); format: cell-based, human
# Procedure: HME and HME/IRIS cells were treated with 10, 20 and 50 μM of paclitaxel for 24 hours. Compared to HME/IRIS cells, untreated HME cells express very low level of BRCA1-IRIS (FIG. 68, left). […] Both EGF and NRG1, which were secreted at higher levels from untreated HME/IRIS cells, remained high after paclitaxel (until ˜50 μM, FIG. 68, left), whereas in HME cells, both were induced by low paclitaxel treatment (FIG. 68, left). Consistently, in HME/IRIS cells EGFR was phosphorylated on Y1173 (activated by EGF when EGFR is in complex with ErbB2) and ErbB2 on Y1248 (activated by NRG1 when ErbB2 is in complex with ErbB3) remained the same after paclitaxel treatment (until ˜50 μM, FIG. 68, left). Phosphorylated EGFR-Y1173 and ErbB2-Y1248 was only observed in paclitaxel treated HME cells, especially at low concentration (FIG. 68, left).
# Survived/paclitaxel-resistant cells were then propagated in the absence of paclitaxel and analyzed. Again, the intrinsically high level of BRCA1-IRIS was not affected by paclitaxel in HME/IRIS cells (FIG. 69, left). […] The expressions of EGFR, ErbB2 and ErbB3 were high in HME/IRIS and HME cells (FIG. 69, left). Despite an intrinsic increase in HME/IRIS and paclitaxel-acquired increase in HME cells in AKT activation, FOXO inactivation/degradation and thus activation increase in CyclinD1, survivin, Bcl-2, Bcl-xL and NF-κB was observed (FIG. 69, right).
# To test that hypothesis, an intron 11 peptide (right in FIG. 26) fused to a cell/nucleus penetrating signal at its N-terminus (left in FIG. 26) was synthesized (hereafter IRIS peptide). First, to assess the effect of this IRIS peptide, equal numbers of HME, HME/IRIS, MDA-MB-231, MDA-MB-468 and BT549 cells were exposed to increasing concentrations of scrambled or IRIS peptide for 48 hours. […] It is possible that preventing BRCA1-IRIS-X complex formation destabilizes BRCA1-IRIS and perhaps leads to its degradation.
# as §1
# To relate the effect of IRIS peptide on cell survival to the effect of BRCA1-IRIS on AKT and ERK survival pathways, MDA-MB-231 and MDA-MB-468 were treated with vehicle, 5 μM of IRIS peptide, 10 μM LY294002, 10 μM PD98059 for 24 hours or were transfected with BRCA1-IRIS siRNA for 72 hours.
# BT549 cells = test: cells; conditions: Homo sapiens, BT-549, read-out: IC50 of paclitaxel (viability)
# Procedure: as §2, §3
# MDA-MB-231 cells = test: cells; conditions: Homo sapiens, MDA-MB-231, read-out: IC50 of paclitaxel (viability)
# Procedure: as §2
# Stable clones were then exposed to 0, 10 or 20 μM of EGFR (Erlotinib), ErbB2 (CP-724714), PI3′K/AKT (LY294002), p38 (SB203580), ERK (PD98059) or JNK (SP600125) inhibitors for 24 hours.
smiles,measurement,setting,value
CC(=O)O[C@H]1C(=O)[C@@]2(C)[C@H]([C@H](OC(=O)c3ccccc3)[C@]3(O)C[C@H](OC(=O)[C@H](O)[C@@H](NC(=O)c4ccccc4)c4ccccc4)C(C)=C1C3(C)C)[C@]1(OC(C)=O)CO[C@@H]1C[C@@H]2O [paclitaxel],IC50,MDA-MB-468 cells,< 20 µM
same,tumor size relative to control tumors,MDA-MB-468 tumors,half the size of the control tumors
same,IC50,HME/IRIS cells,~50 µM
same,BRCA1-IRIS and survivin expression in tumors (IHC),BRCA1-IRIS and survivin,significantly increase BRCA1-IRIS and survivin expression
same,reduction in survival,[1]; paclitaxel alone at 5 μM,~50%
same,reduction in survival,[1]; paclitaxel alone at 10 μM,~60%
same,reduction in survival,[1]; paclitaxel alone at 20 μM,~70%
same,IC50,HME cells,~5 µM
same,BRCA1-IRIS expression in HME cells,BRCA1-IRIS; 1 μM of paclitaxel for 1 or 3 weeks,acquired-induction in BRCA1-IRIS expression was detected
same,BRCA1-IRIS expression in HME cells,"BRCA1-IRIS; 10 and 20 μM paclitaxel, 24 hours",significantly upregulated BRCA1-IRIS expression
same,BRCA1-IRIS expression in HME/IRIS cells,"BRCA1-IRIS; paclitaxel 24 hours, until ~50 μM",did not alter the expression of BRCA1-IRIS
same,IC50,BT549 cells,~35 µM
same,IC50,MDA-MB-231 cells,> 50 µM
